Source: PubChem BioAssay (NCI)
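Tested at 5 concentrations; 48 h exposure; 96-well plates; endpoints linearly interpolated, else capped at highest concentration. TGI is the concentration that stops growth completely.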

Experiments:
Assay in all cases: inhibition of tumour cell growth, NCI panel, 48 h
SK-MEL-5 melanoma = system: SK-MEL-5 melanoma
NCI-H522 lung = system: NCI-H522 lung
MDA-MB-231 breast = system: MDA-MB-231 breast
MOLT-4 leukemia = system: MOLT-4 leukemia
U251 CNS = system: U251 CNS
SN12C renal = system: SN12C renal
SF-268 CNS = system: SF-268 CNS
SK-OV-3 ovarian = system: SK-OV-3 ovarian
786-0 renal = system: 786-0 renal
SK-MEL-2 melanoma = system: SK-MEL-2 melanoma
NCI-H226 lung = system: NCI-H226 lung
SK-MEL-28 melanoma = system: SK-MEL-28 melanoma
OVCAR-8 ovarian = system: OVCAR-8 ovarian
MDA-MB-435 = system: MDA-MB-435
MDA-N = system: MDA-N
IGROV1 ovarian = system: IGROV1 ovarian
NCI-H23 lung = system: NCI-H23 lung
SNB-19 CNS = system: SNB-19 CNS
RXF 393 renal = system: RXF 393 renal
K-562 leukemia = system: K-562 leukemia

Row | Structure (SMILES) | TGI (SK-MEL-5 melanoma) [µM] | TGI (NCI-H522 lung) [µM] | TGI (MDA-MB-231 breast) [µM] | TGI (MOLT-4 leukemia) [µM] | TGI (U251 CNS) [µM] | TGI (SN12C renal) [µM] | TGI (SF-268 CNS) [µM] | TGI (SK-OV-3 ovarian) [µM] | TGI (786-0 renal) [µM] | TGI (SK-MEL-2 melanoma) [µM] | TGI (NCI-H226 lung) [µM] | TGI (SK-MEL-28 melanoma) [µM] | TGI (OVCAR-8 ovarian) [µM] | TGI (MDA-MB-435) [µM] | TGI (MDA-N) [µM] | TGI (IGROV1 ovarian) [µM] | TGI (NCI-H23 lung) [µM] | TGI (SNB-19 CNS) [µM] | TGI (RXF 393 renal) [µM] | TGI (K-562 leukemia) [µM]
1 | COC(=O)CCc1cc(OC)c(O)c(C(Cc2ccc(OC)c(OC)c2)C(=O)OC)c1 (stereo not given) | > 100 | > 100 | > 100 | > 100 | > 100 | > 100 | > 100 | > 100 | > 100 | > 100 | > 100 | > 100 | > 100 | > 100 | > 100 | > 100 | > 100 | > 100 | > 100 | > 100
2 | NNC(=O)CSc1nc2ccc(I)cc2c(=O)n1Cc1ccccc1 | 38.5 | 30.7 | 34.1 | 45.3 | 40.8 | 48.6 | 41.3 | 32.7 | 30.7 | 46 | 41.9 | 80.5 | > 100 | > 100 | > 100 | 69.3 | 74.7 | 54.8 | 26.5 | 88
3 | CC(=N\N)/C(C)=N/N=C(C)/C(C)=N/N=C(C)/C(C)=N/N=C(C)/C(C)=N/N | > 100 | > 100 | > 100 | > 100 | > 100 | > 100 | > 100 | > 100 | > 100 | > 100 | > 100 | > 100 | > 100 | > 100 | > 100 | > 100 | > 100 | > 100 | > 100 | > 100
4 | CCC(C#N)(c1ccccc1)N(CCc1ccccc1)C(=O)c1ccccc1 (stereo not given) | > 100 | > 100 | 52.2 | > 100 | > 100 | > 100 | > 100 | 82.7 | 37.5 | > 100 | 39.7 | > 100 | 54.2 | > 100 | > 100 | > 100 | > 100 | > 100 | 55.3 | > 100
5 | C=CCN1CCC(OC(=O)C(O)(C#CC)C2CCCC2)CC1 (stereo not given) | > 100 | > 100 | > 100 | > 100 | > 100 | > 100 | > 100 | > 100 | > 100 | > 100 | > 100 | > 100 | > 100 | > 100 | > 100 | > 100 | > 100 | > 100 | > 100 | > 100
6 | CC1(C)[C@H](C(=O)O)N2C(=O)[C@@H](NS(=O)(=O)c3ccc([N+](=O)[O-])cc3)[C@H]2S1(=O)=O | > 100 | > 100 | > 100 | > 100 | > 100 | > 100 | > 100 | > 100 | > 100 | > 100 | > 100 | > 100 | > 100 | > 100 | > 100 | > 100 | > 100 | > 100 | > 100 | > 100
